This series deals with Hela pLuc 705 cells. In words: Toxicity measurements (MTS cell proliferation assay). Type of series: cell-based. The settings on record: peptide:2'-OMe ON complexes, 200 nM ON, 24 hours, most effective concentrations (FIG. 6). The method, then:
Cell proliferation was studied with CellTiter 96® A Queous Non-Radioactive Cell Proliferation Assay (MTS) according to the manufacturer's instructions. Briefly, 10000 Hela pLuc 705 cells per well were seeded 1 day prior to experiment on a 96-well plate in complete DMEM. Cells were treated with peptide: 2′-OMe ON complexes at four different molar ratios (5:1, 7:1, 10:1 and 20:1) for 4 hours in serum-free medium, followed by the addition of 10% serum containing medium and incubated for additional 20 hours. MTS was added according to the manufacturer's general protocol (Promega Biotech AB, Sweden). The conversion of MTS into aqueous, soluble formazan is accomplished by dehydrogenase enzymes found in metabolically active cells. The absorbance of formazan product was measured at 490 nm, which is directly proportional to the number of living cells in culture. Absorbance was measured on Tecan Sunrise microplate absorbance reader (Tecan Group Ltd., Switzerland) and the percentage of viable cells was determined using GraphPad Prism software 5.0 (Graphpad Software, CA, USA).

Turning to `CCCCCCCCCCCCCCCCCC(=O)N[C@@H](C)C(=O)NCC(=O)N[C@@H](Cc1ccc(O)cc1)C(=O)N[C@@H](CC(C)C)C(=O)N[C@@H](CC(C)C)C(=O)NCC(=O)N[C@@H](CCCCN)C(=O)N[C@H](C(=O)N[C@@H](CC(N)=O)C(=O)N[C@@H](CC(C)C)C(=O)N[C@@H](CCCCN)C(=O)N[C@@H](C)C(=O)N[C@@H](CC(C)C)C(=O)N[C@@H](C)C(=O)N[C@@H](C)C(=O)N[C@@H](CC(C)C)C(=O)N[C@@H](C)C(=O)N[C@@H](CCCCN)C(=O)N[C@@H](CCCCN)C(=O)N[C@H](C(=O)N[C@@H](CC(C)C)C(N)=O)[C@@H](C)CC)[C@@H](C)OP(=O)(O)O` [NickFect 2, Stearyl-AGYLLGKT(PO3)NLKALAALAKKIL-NH2], the “toxicity (cell viability by MTS)” value is “not toxic”. Take `CCCCCCCCCCCCCCCCCC(=O)N[C@@H](C)C(=O)NCC(=O)N[C@@H](Cc1ccc(OP(=O)(O)O)cc1)C(=O)N[C@@H](CC(C)C)C(=O)N[C@@H](CC(C)C)C(=O)NCC(=O)N[C@@H](CCCCN)C(=O)N[C@H](C(=O)N[C@@H](CC(N)=O)C(=O)N[C@@H](CC(C)C)C(=O)N[C@@H](CCCCN)C(=O)N[C@@H](C)C(=O)N[C@@H](CC(C)C)C(=O)N[C@@H](C)C(=O)N[C@@H](C)C(=O)N[C@@H](CC(C)C)C(=O)N[C@@H](C)C(=O)N[C@@H](CCCCN)C(=O)N[C@@H](CCCCN)C(=O)N[C@H](C(=O)N[C@@H](CC(C)C)C(N)=O)[C@@H](C)CC)[C@@H](C)O` [NickFect 1, Stearyl-AGY(PO3)LLGKTNLKALAALAKKIL-NH2]: the “toxicity (cell viability by MTS)” value is recorded as “not toxic”.
